Source: EP2879657B1, “NOVEL SIRT1 ACTIVATORS AND PHARMACEUTICAL OR COSMETIC COMPOSITIONS COMPRISING THEM” (Centre National de la Recherche Scientifique (C.N.R.S.), priority 2012, dated 2014)
Read-outs that look alike come from different tables or passages of the source.

Legend:
[1] = test system: adipocytes humains matures; assay: Lipolysis: glycerol released by mature adipocytes (AdipoLyze Detection Assay); type: cell-based; conditions: Adipocyte, read-out: augmentation de la quantité de glycérol secrété par les adipocytes
Excerpt: Les préadipocytes primaires sous-cutanés humains fournis par Lonza ont été mis en culture (10 000 cellules/puits dans des plaques de 96 puits) dans un milieu de croissance (PGM-2, Lonza, PT-9502) pendant une nuit. A J1, les cellules ont été mises dans le milieu de différenciation pendant 12 jours pour acquérir les caractéristiques des adipocytes matures. […]

Sirt1 = target: T1, Sirt1 (Homo sapiens, UniProt Q96EB6); assay: HTRF SIRT1 Assay (Cisbio): enzymatic activity of purified Sirt1; type: biochemical; conditions: 0.5 h; at about 2,5 µM (1 µg/ml); vs enzyme without compound; read-out: % d'augmentation de l'activité de Sirt1
T1 construct: purchased Cisbio
T1 sequence (Q96EB6 1-747): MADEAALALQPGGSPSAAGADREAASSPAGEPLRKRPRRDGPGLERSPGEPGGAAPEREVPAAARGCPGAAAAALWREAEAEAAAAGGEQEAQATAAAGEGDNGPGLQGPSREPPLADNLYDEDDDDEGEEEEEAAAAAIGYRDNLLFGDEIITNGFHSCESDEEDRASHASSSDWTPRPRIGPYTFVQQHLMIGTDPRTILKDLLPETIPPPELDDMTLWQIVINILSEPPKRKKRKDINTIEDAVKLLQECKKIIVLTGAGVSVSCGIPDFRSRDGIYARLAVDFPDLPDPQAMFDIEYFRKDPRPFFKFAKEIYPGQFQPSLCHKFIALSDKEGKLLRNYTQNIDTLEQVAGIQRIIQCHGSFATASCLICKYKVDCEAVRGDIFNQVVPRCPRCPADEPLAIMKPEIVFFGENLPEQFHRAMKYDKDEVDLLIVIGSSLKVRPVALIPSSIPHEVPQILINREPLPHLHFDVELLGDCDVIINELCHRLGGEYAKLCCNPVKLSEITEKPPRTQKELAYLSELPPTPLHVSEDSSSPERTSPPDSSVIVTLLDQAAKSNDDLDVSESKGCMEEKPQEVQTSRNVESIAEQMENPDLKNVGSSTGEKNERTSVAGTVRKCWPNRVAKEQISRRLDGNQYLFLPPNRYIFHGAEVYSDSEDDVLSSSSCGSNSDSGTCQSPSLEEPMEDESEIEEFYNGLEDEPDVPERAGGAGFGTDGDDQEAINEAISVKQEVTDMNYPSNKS
Description: L'activité enzymatique de Sirt1 a été évaluée à l'aide du kit «HTRF^R SIRT1 Assay » vendu par la Société Cisbio. Lors de ces expériences, l'enzyme purifiée a été incubée à température ambiante en présence du NAD (cofacteur) de son substrat acétylé et du composé à tester utilisé aux concentrations variant de 0,24 µM à 280 µM. « SIRT1 Activator 3 », un activateur commercial de Sirt1 a été utilisé comme un contrôle positif. Après 30 min d'incubation, la réaction enzymatique est arrêtée et la quantité de substrat acétylé restante est évaluée à l'aide d'un anticorps spécifique.
Une augmentation de l'activité enzymatique de Sirt1 en présence des composés décrits s'est traduite par une diminution de la quantité d'anticorps capable de se fixer sur le substrat et donc par une diminution de l'émission de fluorescence qui en résulte, comparé à la valeur obtenue avec l'enzyme seule. Les résultats sont exprimés en % d'augmentation de l'activité de Sirt1 par rapport à celle obtenue avec l'enzyme sans ajout des composés.

[2] = 50 µM, mature adipocytes treated 72h, culture supernatant

## CC(=O)N[C@H]1CC[C@@]2(C)C(=CC[C@H]3[C@@H]4CC[C@H]([C@H](C)NC(C)=O)[C@@]4(COC(C)=O)CC[C@@H]32)C1 (single isomer, unassigned; diac) [C3, Acétatede 3 β, 20 α-diacétamido-pregn-5-en-18-ol]
[1]; [2]
  activation at 50 µM: 18%

## C[C@@H]([C@H]1CC[C@H]2[C@@H]3CC[C@H]4C[C@@H](O)CC[C@]4(C)[C@H]3CC[C@]12C)N(C)C [C1, 20-(diméthylamino)-, (3β,5α,20S)-pregnan-3-ol]
Sirt1
  activation at 2.5 µM: > 50%
[1]; 72 h
  activation at 50 µM: 44%

## CC(=O)N(C)[C@H]1CC[C@@]2(C)[C@@H](CC[C@@H]3[C@@H]2CC[C@]2(C)[C@@H]([C@H](C)N(C)C)CC[C@@H]32)C1 [C2, N-[(3 β, 5 α, 20S)-20-(diméthylamino)pregnan-3-yl]-N-méthyl-acétamide]
[1]; [2]
  activation at 50 µM: 24%

## CC(=O)N(C)[C@H]1CC[C@@]2(C)C(=C[C@H](O)[C@H]3[C@@H]4CC[C@@H]5[C@H](C)OC(=O)[C@@]54CC[C@@H]32)C1 [C4, Acide 3-(acétylméthylamino)-7,20-dihydroxy-, γ-lactone, (3 β, 7 β ,20S)-pregn-5-èn-18-oïque]
Sirt1
  activation at 2.5 µM: > 50%
[1]; [2]
  activation at 50 µM: 10%

## CC(=O)N(C)[C@H]1CC[C@@]2(C)C(=CC(=O)[C@H]3[C@@H]4CC[C@@H]5[C@H](C)OC(=O)[C@@]54CC[C@@H]32)C1 [C5, Acide 20 α-hydroxy-3 β-(N-méthylacétamido)-7-oxo-, γ-lactone pregn-5-èn-18-oïque]
[1]; [2]
  activation at 50 µM: 14%

## CC(=O)N(C)[C@H]1CC[C@@]2(C)C(=CC[C@H]3[C@@H]4CC[C@@H]5[C@H](C)N(C(C)=O)C[C@@]54CC[C@@H]32)C1 [C6, N-acétyl-3 β-(N-méthylacétamido)-norcon-5-énine]
Sirt1
  activation at 2.5 µM: > 50%
[1]; [2]
  activation at 50 µM: 41%
